Assay results taken from patent publication US20250144067A1, “PERSONALIZED STARVATION THERAPY FOR CANCER” (Faeth Therapeutics, Inc., priority 2021, published 2025).
Structures can show the parent of a compound that is named as a salt. Where two headings read alike, the source gives them in different places. Ends that are not written are not given here.

Experiments:
[1] = system: NCI-H292 lung cancer cells; assay: FDA drug screening, complete media vs cholesterol-free media without statin (TABLE 1); assay type: cell-based, human
[2] = system: NCI-H292 lung cancer cells; assay: FDA drug screening, complete media vs cholesterol-free media with simvastatin (TABLE 2); assay type: cell-based, human
[3] = NCI-H292 cells, cholesterol-free media without statin, FDA drug library screen
[4] = NCI-H292 cells, complete media, FDA drug library screen
[5] = complete vs cholesterol-free media, >0 enhanced anti-cancer activity, about 0 neutral, <0 antagonist
[6] = NCI-H292 cells, cholesterol-free media with simvastatin 0.04 μM, cell growth value in FDA drug screen
[7] = NCI-H292 cells, complete media, cell growth value in FDA drug screen
[8] = complete media minus cholesterol-free media + simvastatin, >0 enhanced anti-cancer activity, about 0 neutral, <0 antagonist
[9] = NCI-H292 cells, cholesterol-free media without statin
[10] = complete vs cholesterol-free media, greater than 0 enhanced anti-cancer activity, about 0 neutral, below 0 antagonists
[11] = Complete minus Cholesterol-free, […]
[12] = NCI-H292 cells, FDA library drug in cholesterol-free media with simvastatin 0.04 μM
[13] = NCI-H292 cells, FDA library drug in complete media
[14] = complete media vs cholesterol-free media + simvastatin (0.04 μM), […]
[15] = NCI-H292 cells, FDA drug library screen, cholesterol-free media with simvastatin 0.04 μM
[16] = NCI-H292 cells, FDA drug library screen, complete media
[17] = Complete minus Cholesterol-free, greater than 0 enhanced anti-cancer activity, about 0 neutral, below 0 antagonists
[18] = NCI-H292 cells in cholesterol-free media without statin
[19] = NCI-H292 cells in complete media
[20] = Complete minus Cholesterol-free, >0 enhanced anti-cancer activity, about 0 neutral, <0 antagonist
[21] = NCI-H292 cells, cholesterol-free media with simvastatin 0.04 μM, FDA drug library screen (TABLE 2)
[22] = NCI-H292 cells, complete media, FDA drug library screen (TABLE 2)
[23] = complete media minus cholesterol-free media + simvastatin (0.04 μM), >0 enhanced anti-cancer activity, about 0 neutral, <0 antagonist
[24] = NCI-H292 cells, drug in cholesterol-free media with simvastatin 0.04 μM
[25] = NCI-H292 cells, drug in complete media
[26] = complete media vs cholesterol-free media + simvastatin (0.04 μM), >0 enhanced anti-cancer activity, about 0 neutral, <0 antagonist
[27] = Complete minus Cholesterol-free, greater than 0 enhanced anti-cancer activity, about 0 neutral, below 0 antagonist
[28] = NCI-H292 cells, FDA drug library screen, cholesterol-free media without statin

N#Cc1ccc2[nH]cc(CCCCN3CCN(c4ccc5oc(C(N)=O)cc5c4)CC3)c2c1 [Vilazodone]
Cholesterol-free [1, 3]: 0.8843 | Complete [1, 4]: 1.054 | Difference [1, 5]: 0.17 | Cholesterol-free media + simvastatin (0.04 μM) [2, 6]: 0.8049 | Complete Media [2, 7]: 0.9107 | Difference [2, 8]: 0.11

Nc1nc(=O)n([C@@H]2CS[C@H](CO)O2)cc1F [Emtricitabine]
Cholesterol-free [1, 3]: 0.9457 | Complete [1, 4]: 1.235 | Difference [1, 5]: 0.29 | Cholesterol-free media + simvastatin (0.04 μM) [2, 6]: 1.347 | Complete Media [2, 7]: 1.442 | Difference [2, 8]: 0.09

O=C(O)c1cn(C2CC2)c2cc(N3CCNCC3)c(F)cc2c1=O [Ciprofloxacin]
Cholesterol-free [1, 9]: 1.503 | Complete ([1]; NCI-H292 cells, complete media): 1.066 | Difference [1, 10]: −0.44 | Cholesterol-free media + simvastatin (0.04 μM) [2, 6]: 0.9642 | Complete Media [2, 7]: 1.043 | Difference [2, 8]: 0.08

CC(=O)OCC(=O)[C@@]1(O)CC[C@H]2[C@@H]3CCC4=CC(=O)C=C[C@]4(C)[C@H]3C(=O)C[C@@]21C [Prednisone acetate]
Difference [1, 11]: −0.20 | Cholesterol-free [1, 9]: 0.9782 | Complete ([1]; NCI-H292 cells, complete media): 0.7806 | Cholesterol-free media + simvastatin (0.04 μM) [2, 12]: 0.9605 | Complete Media [2, 13]: 0.6606 | Difference [2, 14]: −0.30

C[N+](C)(C)CCOP(=O)(O)OP(=O)([O-])OC[C@H]1O[C@@H](n2ccc(N)nc2=O)[C@H](O)[C@@H]1O [Citicoline]
Cholesterol-free [1, 3]: 0.7726 | Complete [1, 4]: 1.062 | Difference [1, 5]: 0.29 | Cholesterol-free media + simvastatin (0.04 μM) [2, 15]: 0.6677 | Complete Media [2, 16]: 1.557 | Difference [2, 8]: 0.89

CC(=O)OCC(=O)[C@@]1(O)CC[C@H]2[C@@H]3CCC4=CC(=O)CC[C@]4(C)[C@H]3C(=O)C[C@@]21C [Cortisone acetate]
Difference [1, 17]: −1.35 | Cholesterol-free [1, 18]: 2.332 | Complete [1, 19]: 0.9837 | Cholesterol-free media + simvastatin (0.04 μM) [2, 6]: 1.003 | Complete Media [2, 7]: 1.101 | Difference [2, 8]: 0.10

CC(C)CN(C[C@@H](O)[C@H](Cc1ccccc1)NC(=O)O[C@H]1CO[C@H]2OCC[C@H]21)S(=O)(=O)c1ccc(N)cc1 [Darunavir (Ethanolate)]
Cholesterol-free [1]: 0.8952 | Difference [1]: 0.25 | Cholesterol-free media + simvastatin (0.04 μM) [2]: 1.545 | Complete Media [2]: 1.286 | Difference [2]: −0.26

O=C(N/N=C/c1ccc([N+](=O)[O-])o1)c1ccc(O)cc1 [Nifuroxazide]
Difference [1, 20]: −0.04 | Cholesterol-free [1, 3]: 0.9553 | Complete [1, 4]: 0.9139 | Cholesterol-free media + simvastatin (0.04 μM) [2, 6]: 1.161 | Complete Media [2, 7]: 1.265 | Difference [2, 8]: 0.10

Oc1c(Cl)cc(Cl)c2cccnc12 [Chloroxine]
Cholesterol-free [1, 3]: 1.086 | Complete [1, 4]: 1.288 | Difference [1, 5]: 0.20 | Cholesterol-free media + simvastatin (0.04 μM) [2, 6]: 0.8888 | Complete Media [2, 7]: 1.011 | Difference [2, 8]: 0.12

c1ccc(C2CN3CCSC3=N2)cc1 (stereo not shown) [Tetramisole (hydrochloride)]
Cholesterol-free [1, 9]: 1.362 | Complete ([1]; NCI-H292 cells, complete media): 0.9185 | Difference [1, 10]: −0.44 | Cholesterol-free media + simvastatin (0.04 μM) [2, 21]: 1.011 | Complete Media [2, 22]: 0.9757 | Difference [2, 23]: −0.04

CC#CCC(C)[C@H](O)/C=C/[C@@H]1[C@H]2C/C(=C/CCCC(=O)O)C[C@H]2C[C@H]1O (stereo partly shown) [Iloprost]
Difference [1, 17]: −0.58 | Cholesterol-free [1, 18]: 1.473 | Complete [1, 19]: 0.8944 | Cholesterol-free media + simvastatin (0.04 μM) [2, 24]: 1.189 | Complete Media [2, 25]: 0.9963 | Difference [2, 26]: −0.19

CC(C)NC[C@H](O)COc1ccc(CCOCC2CC2)cc1 [Levobetaxolol (hydrochloride)]
Difference [1, 17]: −0.54 | Cholesterol-free [1, 18]: 1.517 | Complete [1, 19]: 0.977 | Cholesterol-free media + simvastatin (0.04 μM) [2, 21]: 1.004 | Complete Media [2, 22]: 0.9581 | Difference [2, 23]: −0.05

CCn1c(=O)c2c(nc(/C=C/c3ccc(OC)c(OC)c3)n2C)n(CC)c1=O [Istradefylline]
Cholesterol-free [1, 3]: 0.9821 | Difference [1, 5]: 0.19 | Cholesterol-free media + simvastatin (0.04 μM) [2, 24]: 1.183 | Complete Media [2, 25]: 0.9547 | Difference [2, 26]: −0.23

CCCOc1ccc(S(=O)(=O)NCCC2CCCN2C)cc1-c1nc2c(CCC)nn(C)c2c(=O)[nH]1 (stereo not shown) [Udenafil]
Difference [1, 20]: −0.28 | Cholesterol-free [1, 9]: 1.473 | Complete ([1]; NCI-H292 cells, complete media): 1.195 | Cholesterol-free media + simvastatin (0.04 μM) [2, 6]: 1.921 | Complete Media [2, 7]: 2.002 | Difference [2, 8]: 0.08

CCn1cc(C(=O)O)c(=O)c2cc(F)c(N3CCNCC3)nc21 [Enoxacin (hydrate)]
Difference [1, 17]: −0.49 | Cholesterol-free [1, 18]: 1.532 | Complete [1, 19]: 1.045 | Cholesterol-free media + simvastatin (0.04 μM) [2, 21]: 1.166 | Complete Media [2, 22]: 1.164 | Difference [2, 23]: 0.00

C[N+](C)(C)C[C@H](O)CC(=O)[O-] [L-Carnitine]
Difference [1, 27]: −0.11 | Cholesterol-free [1, 28]: 1.053 | Complete [1, 16]: 0.9402 | Cholesterol-free media + simvastatin (0.04 μM) [2, 15]: 0.9127 | Complete Media [2, 16]: 0.8221 | Difference [2, 26]: −0.09

CC(C)(C(=O)O)c1ccc(C(O)CCCN2CCC(C(O)(c3ccccc3)c3ccccc3)CC2)cc1 (stereo not shown) [Fexofenadine (hydrochloride)]
Difference [1, 20]: −0.02 | Cholesterol-free [1, 3]: 1.052 | Complete [1, 4]: 1.034 | Cholesterol-free media + simvastatin (0.04 μM) [2, 12]: 1.402 | Complete Media [2, 13]: 1.104 | Difference [2, 26]: −0.30

CCO[C@H]1O[C@@H]2O[C@@]3(C)CC[C@H]4[C@H](C)CC[C@@H]([C@H]1C)[C@@]24OO3 [Artemotil]
Difference [1, 20]: −0.21 | Cholesterol-free [1, 9]: 0.7572 | Complete ([1]; NCI-H292 cells, complete media): 0.5514 | Cholesterol-free media + simvastatin (0.04 μM) [2, 15]: 0.9606 | Complete Media [2, 16]: 0.8046 | Difference [2, 26]: −0.16

COc1ccc(-c2nc3ccc(C4=NNC(=O)CC4C)cc3[nH]2)cc1 (stereo not shown) [Pimobendan]
Difference [1, 27]: −0.11 | Cholesterol-free [1, 28]: 1.104 | Complete [1, 16]: 0.9932 | Cholesterol-free media + simvastatin (0.04 μM) [2, 21]: 1.535 | Complete Media [2, 22]: 1.535 | Difference [2, 23]: 0.00

NCc1ccccc1CC(=O)N[C@@H]1C(=O)N2C(C(=O)O)=C(CSc3nnnn3CC(=O)O)CS[C@H]12 [Ceforanide]
Difference [1, 17]: −0.76 | Cholesterol-free [1, 18]: 1.736 | Complete [1, 19]: 0.9794 | Cholesterol-free media + simvastatin (0.04 μM) [2, 15]: 1.034 | Complete Media [2, 16]: 1.331 | Difference [2, 8]: 0.30

COc1ccc2[n-]c([S+]([O-])Cc3ncc(C)c(OC)c3C)nc2c1.[Na+] (stereo not shown) [Omeprazole (sodium)]
Difference [1, 20]: −0.07 | Cholesterol-free [1, 3]: 0.7641 | Complete [1, 4]: 0.6989 | Cholesterol-free media + simvastatin (0.04 μM) [2, 21]: 0.9544 | Complete Media [2, 22]: 0.9688 | Difference [2, 23]: 0.01

Rilmenidine (phosphate)
Difference [1, 11]: 0.01 | Cholesterol-free [1, 3]: 0.9893 | Complete [1, 4]: 0.995 | Cholesterol-free media + simvastatin (0.04 μM) [2, 21]: 1.249 | Complete Media [2, 22]: 1.215 | Difference ([2]; complete media minus cholesterol-free media + simvastatin (0.04 μM), […]): −0.03

CC(C)(C)NC(=O)[C@@H]1C[C@@H]2CCCC[C@@H]2CN1C[C@@H](O)[C@H](Cc1ccccc1)NC(=O)[C@H](CC(N)=O)NC(=O)c1ccc2ccccc2n1 [Saquinavir]
Cholesterol-free [1, 9]: 1.314 | Complete ([1]; NCI-H292 cells, complete media): 0.9252 | Difference [1, 10]: −0.39 | Cholesterol-free media + simvastatin (0.04 μM) [2, 24]: 0.9867 | Complete Media [2, 25]: 0.801 | Difference [2, 26]: −0.19

Argipressin (CYFQNCPRG; not fully specified (C-terminus, bridges); cysteine pairing not given here; UniProt P01185 20-28, looked up)
Difference [1, 11]: −0.56 | Cholesterol-free [1, 18]: 1.358 | Complete [1, 19]: 0.7951 | Cholesterol-free media + simvastatin (0.04 μM) [2, 12]: 1.506 | Complete Media [2, 13]: 1.167 | Difference [2, 14]: −0.34

CO[C@H]1/C=C/O[C@@]2(C)Oc3c(C)c(O)c4c(O)c(c5c(nc6cc(C)ccn65)c4c3C2=O)NC(=O)/C(C)=C\C=C\[C@H](C)[C@H](O)[C@@H](C)[C@@H](O)[C@@H](C)[C@H](OC(C)=O)[C@@H]1C [Rifaximin]
Cholesterol-free [1, 3]: 0.8156 | Complete [1, 4]: 1.163 | Difference [1, 5]: 0.35 | Cholesterol-free media + simvastatin (0.04 μM) [2, 15]: 0.8832 | Complete Media [2, 16]: 0.7304 | Difference [2, 26]: −0.15

CC(=O)Nc1nnc(S(N)(=O)=O)s1 [Acetazolamide]
Cholesterol-free [1, 3]: 0.821 | Complete [1, 4]: 0.9414 | Difference [1, 5]: 0.12 | Cholesterol-free media + simvastatin (0.04 μM) [2, 21]: 0.9594 | Complete Media [2, 22]: 0.9398 | Difference [2, 23]: −0.02

C[C@H](CS)C(=O)N1CCC[C@H]1C(=O)O [Captopril]
Difference [1, 20]: −0.19 | Cholesterol-free [1, 9]: 0.897 | Complete ([1]; NCI-H292 cells, complete media): 0.704 | Cholesterol-free media + simvastatin (0.04 μM) [2, 21]: 0.8354 | Complete Media [2, 22]: 0.832 | Difference [2, 23]: 0.00
